Literature values in patent US9522876B2, “Cytotoxic and anti-mitotic compounds, and methods of using the same” (ZYMEWORKS INC., priority 2013, dated 2016).

Tested on: cells
Settings: related art

Compound | anti-mitotic activity
CN[C@H](C(=O)N[C@H](C(=O)N(C)[C@H](/C=C(\C)C(=O)O)C(C)C)C(C)(C)C)C(C)(C)c1ccccc1 [HT1-286] | potent anti-mitotic activity
CN[C@H](C(=O)N[C@H](C(=O)N(C)[C@H](/C=C(\C)C(=O)O)C(C)C)C(C)(C)C)C(C)(C)c1cn(C)c2ccccc12 [hemiasterlin] | causes microtubule depolymerization and mitotic arrest in cells
